Our source for the GI50 and TGI values is PubChem BioAssay (NCI).

Among the test systems are KM12 colon; UACC-257 melanoma; LXFL 529 NSCLC; HL-60(TB) leukemia; A549 NSCLC; HT29 colon; DMS 114 small cell lung; DMS 273 small cell lung.
Holding throughout (assay): NCI tumour cell line growth inhibition, 48 h

“And” between values parts separate entries of the source, which are not always exact repeats. Identical values can stand only once.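 How tested: cells in 96-well plates exposed to compound for 48 hours at five concentrations. Here, GI50 denotes the concentration required for 50% inhibition of growth. TGI is the concentration that stops growth completely.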

As for `C[C@@]12CCCc3coc(c31)C(=O)c1cc3c(cc12)C(=O)C=CC3=O`, the GI50 in the assay with KM12 colon, with UACC-257 melanoma, with LXFL 529 NSCLC, in the assay with HL-60(TB) leukemia, with A549 NSCLC and in the assay with HT29 colon was greater than 1 µM each time. In the assay on DMS 114 small cell lung, the GI50 is greater than 1 µM. In addition, the TGI with KM12 colon was > 1 µM and 41.8 µM; in the assay on UACC-257 melanoma, > 1 µM and 29.9 µM; in the assay with LXFL 529 NSCLC, > 1 µM and 28.2 µM; in the assay on HL-60(TB) leukemia, greater than 100 µM; with A549 NSCLC, > 1 µM and 51.4 µM; in the assay on HT29 colon, > 1 µM and 44.9 µM. In addition, the TGI in the assay with DMS 114 small cell lung was > 1 µM and 39.9 µM; in the assay on DMS 273 small cell lung it was greater than 1 µM.

Take `CC1(C)O/C(=C\c2ccccc2)C(=O)/C(=C/c2ccccc2)O1`: the TGI in the assay with KM12 colon is greater than 100 µM; in the assay on UACC-257 melanoma, 71.7 µM; with LXFL 529 NSCLC, greater than 100 µM; with HL-60(TB) leukemia, 29.4 µM; in the assay with A549 NSCLC, greater than 100 µM; with HT29 colon it was greater than 100 µM. The TGI in the assay on DMS 114 small cell lung was 48.1 µM; in the assay on DMS 273 small cell lung, greater than 100 µM.

For `O=S1OC2(c3ccccc3-c3ccccc32)c2ccccc21` (stereo not given), the TGI in the assay on KM12 colon, in the assay on UACC-257 melanoma, in the assay with LXFL 529 NSCLC, with HL-60(TB) leukemia, in the assay with A549 NSCLC and with HT29 colon was greater than 100 µM throughout. This molecule also showed a TGI in the assay on DMS 114 small cell lung greater than 100 µM.

As for `Cc1cc(C)c(C2[C@H]3C(=O)N(c4ccc(Cc5ccc(N6C(=O)[C@@H]7ON(c8ccccc8)C(c8c(C)cc(C)cc8C)[C@@H]7C6=O)cc5)cc4)C(=O)[C@H]3ON2c2ccccc2)c(C)c1` (stereo not given in full), the TGI in the assay on KM12 colon, in the assay with UACC-257 melanoma, in the assay with LXFL 529 NSCLC, in the assay on HL-60(TB) leukemia, in the assay on A549 NSCLC and in the assay on HT29 colon was greater than 100 µM each time. Moreover, the TGI in the assay on DMS 114 small cell lung and with DMS 273 small cell lung was greater than 100 µM each time.

Take `COC(=O)CCC(=O)CC1CC(=O)C2CCCN12` (stereo not given): the TGI in the assay with KM12 colon, with UACC-257 melanoma, in the assay on LXFL 529 NSCLC, in the assay with HL-60(TB) leukemia, with A549 NSCLC and in the assay with HT29 colon was greater than 100 µM in each case. In addition, the TGI in the assay with DMS 114 small cell lung and with DMS 273 small cell lung was greater than 100 µM throughout.

As to `CC12CCCCC1(C)C2Sc1ccccc1` (stereo not given), the TGI in the assay with KM12 colon is greater than 100 µM; in the assay with UACC-257 melanoma, greater than 100 µM; with LXFL 529 NSCLC, greater than 100 µM; in the assay with HL-60(TB) leukemia, 36.9 µM; in the assay with A549 NSCLC, greater than 100 µM; in the assay with HT29 colon it was greater than 100 µM. Also, the figures for the TGI with DMS 114 small cell lung and in the assay on DMS 273 small cell lung were greater than 77.8 µM and greater than 100 µM, respectively.

Consider `CC1=NN(C(=O)CC(=O)N(C(=O)c2ccccc2Cl)c2ccc(C)cc2)C(=O)C1N=Nc1ccc([N+](=O)[O-])cc1` (stereo not given), for which the TGI was greater than 100 µM in the assay with KM12 colon; greater than 100 µM in the assay on UACC-257 melanoma; greater than 100 µM in the assay on LXFL 529 NSCLC; greater than 68.8 µM in the assay on HL-60(TB) leukemia; greater than 67.7 µM with A549 NSCLC; greater than 100 µM in the assay with HT29 colon. The TGI in the assay on DMS 114 small cell lung is greater than 60.5 µM; in the assay on DMS 273 small cell lung, greater than 95.7 µM.

Turning to `Nc1nc(CCl)nc(Nc2ccccc2)n1`, the TGI stood at 30.1 µM in the assay with KM12 colon; 71.9 µM in the assay with UACC-257 melanoma; 28.9 µM in the assay on LXFL 529 NSCLC; 11.2 µM in the assay on HL-60(TB) leukemia; 79.4 µM in the assay with A549 NSCLC; 27.9 µM with HT29 colon. In addition, the TGI in the assay on DMS 114 small cell lung is 36.5 µM; in the assay with DMS 273 small cell lung, 14 µM.

On to `C[n+]1cc(C(O)c2ccc3c(c2)OCO3)c2ccccc2c1` (stereo not given), for which the TGI with KM12 colon is greater than 100 µM; in the assay with UACC-257 melanoma, 66.5 µM; in the assay with A549 NSCLC, greater than 100 µM; in the assay on HT29 colon, greater than 100 µM; in the assay with DMS 114 small cell lung it was 83.5 µM; with DMS 273 small cell lung it was greater than 100 µM.

As to `CN(C)C(=S)/N=c1\ss/c(=N\C(=S)N(C)C)n1-c1ccc(Cl)c(Cl)c1`, the TGI with KM12 colon, with UACC-257 melanoma, in the assay on HL-60(TB) leukemia, in the assay on A549 NSCLC, in the assay with HT29 colon and in the assay with DMS 114 small cell lung was greater than 100 µM each time. The same molecule displayed a TGI in the assay with DMS 273 small cell lung greater than 100 µM.

For the molecule `CCCCOC(=O)NC(=O)c1cn(CCCOC(=O)NCCCCCCNC(=O)OCCCn2cc(C(=O)NC(=O)OCCCC)c(=O)[nH]c2=O)c(=O)[nH]c1=O`, the TGI in the assay on KM12 colon, in the assay with UACC-257 melanoma, with LXFL 529 NSCLC, in the assay on HL-60(TB) leukemia, with A549 NSCLC and in the assay on HT29 colon was greater than 100 µM throughout. For the same molecule, the TGI with DMS 114 small cell lung and in the assay with DMS 273 small cell lung was greater than 100 µM throughout.

For `COc1cc(C)c2c(c1C)OC(=O)c1c(C)c(Cl)c(O)c(C=O)c1O2`, the TGI in the assay with KM12 colon came to 35.1 µM; with UACC-257 melanoma, 61.5 µM; in the assay on LXFL 529 NSCLC it was 43.3 µM; in the assay with HL-60(TB) leukemia, 22 µM; with A549 NSCLC, 44.3 µM; in the assay on HT29 colon, 70.3 µM. In the assay with DMS 273 small cell lung, the TGI stood at 37.2 µM.

For `COC(=O)/C(C=O)=C/Sc1ccccc1`, the TGI in the assay with KM12 colon is greater than 100 µM; in the assay with UACC-257 melanoma, greater than 100 µM; with LXFL 529 NSCLC, 78.9 µM; in the assay with HL-60(TB) leukemia, greater than 100 µM; in the assay on A549 NSCLC it was greater than 100 µM; in the assay with HT29 colon, 81.3 µM. The results for the TGI with DMS 114 small cell lung and in the assay with DMS 273 small cell lung were 41 µM and 53.2 µM, respectively.

Turning to `Nc1ccn(C2(CO)C=C(CO)C(O)C2O)c(=O)n1` (stereo not given), the TGI with KM12 colon, with UACC-257 melanoma, in the assay on LXFL 529 NSCLC, in the assay with HL-60(TB) leukemia, in the assay on A549 NSCLC and in the assay with DMS 114 small cell lung was greater than 25.8 µM throughout. The same molecule showed a TGI with DMS 273 small cell lung greater than 25.8 µM.

Take `COc1cc2ccc3c4cc(OC)c(OC(C)C)cc4cnc3c2cc1OC`: the TGI with KM12 colon, with UACC-257 melanoma, with LXFL 529 NSCLC, in the assay on HL-60(TB) leukemia, in the assay with A549 NSCLC and in the assay on HT29 colon was greater than 100 µM in each case. In the assay with DMS 114 small cell lung, this molecule came in with a TGI greater than 100 µM.
